Results reported in ChEMBL document CHEMBL1201862, “PubChem BioAssay data set” (2004).
The source made the active and inactive calls.

What was measured:
[1] = HEK-293T cell viability reduction – luminescence, B-cell screen hits, cytotoxicity control for BCR NF-kB inhibitor project, dose response (AID 489021); format: functional, cell-based;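 note: HEK-293T cells carrying an NF-kB luciferase reporter; cells exposed to compound for about 14 hours before viability readout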
[2] = biological target: DNA dC->dU-editing enzyme APOBEC-3G (Homo sapiens, UniProt Q9HC16); test: Dose Response confirmation of small molecule APOBEC3G DNA Deaminase Inhibitors via a fluorescence-based single-stranded DNA deaminase assay. [Related pubchem assays (depositor defined):AID493012, AID493028]; format: functional
[3] = biological target: T1, Mannose-6-phosphate isomerase (Homo sapiens, UniProt P34949); test: MPI inhibition at elevated mannose 6-phosphate – biochemical, fluorescence intensity, high mannose 6-phosphate, primary screen (AID 1220)
T1 sequence (P34949 whole entry): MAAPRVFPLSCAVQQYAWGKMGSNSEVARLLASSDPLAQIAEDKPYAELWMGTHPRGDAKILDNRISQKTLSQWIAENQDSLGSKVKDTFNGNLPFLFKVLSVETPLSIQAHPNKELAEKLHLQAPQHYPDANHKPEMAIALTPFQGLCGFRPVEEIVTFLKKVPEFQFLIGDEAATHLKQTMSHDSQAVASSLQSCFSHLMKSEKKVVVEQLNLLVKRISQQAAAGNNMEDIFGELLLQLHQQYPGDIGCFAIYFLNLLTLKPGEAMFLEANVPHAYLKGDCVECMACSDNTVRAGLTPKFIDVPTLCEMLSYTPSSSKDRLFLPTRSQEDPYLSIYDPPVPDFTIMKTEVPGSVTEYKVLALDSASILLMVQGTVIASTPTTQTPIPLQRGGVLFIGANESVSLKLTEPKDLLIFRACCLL

[4] = biological target: 26S proteasome non-ATPase regulatory subunit 14 (Homo sapiens, UniProt O00487); test: inhibition of proteasome subunit RPN11 – biochemical, fluorescence polarization, uHTS hits, confirmation (AID 602368); format: functional
[5] = biological target: 72 kDa type IV collagenase (Homo sapiens, UniProt P08253); test: Dose Response validation of uHTS RPN11 inhibitor hits using a MMP-2 Fluorescence assay.; format: functional
Prothrombin = Prothrombin (Bos taurus, UniProt P00735); test: thrombin protease inhibitors – biochemical, fluorescence polarization, uHTS hits, dose response (AID 602369); format: functional
[6] = biological target: Luciferin 4-monooxygenase (Photinus pyralis, UniProt P08659); test: inhibition of purified Photinus pyralis luciferase – biochemical, luminescence, dose response (AID 1891)
Cytochrome P450 2D6 = Cytochrome P450 2D6 (Homo sapiens, UniProt P10635);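 note: CYP2D6 member of a cytochrome P450 panel assay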
[7] = Luminescence Cell-Based Dose Confirmation HTS to Identify Inhibitors of Platelet Dense Granule Release. [Related pubchem assays: 1663 (Primary HTS), 1678 (Summary of Project)]; format: functional
Cytochrome P450 1A2 = biological target: T2, Cytochrome P450 1A2 (Homo sapiens, UniProt P05177);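 note: PubChem cytochrome P450 panel assay, CYP1A2 panel member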
T2 sequence (P05177 whole entry): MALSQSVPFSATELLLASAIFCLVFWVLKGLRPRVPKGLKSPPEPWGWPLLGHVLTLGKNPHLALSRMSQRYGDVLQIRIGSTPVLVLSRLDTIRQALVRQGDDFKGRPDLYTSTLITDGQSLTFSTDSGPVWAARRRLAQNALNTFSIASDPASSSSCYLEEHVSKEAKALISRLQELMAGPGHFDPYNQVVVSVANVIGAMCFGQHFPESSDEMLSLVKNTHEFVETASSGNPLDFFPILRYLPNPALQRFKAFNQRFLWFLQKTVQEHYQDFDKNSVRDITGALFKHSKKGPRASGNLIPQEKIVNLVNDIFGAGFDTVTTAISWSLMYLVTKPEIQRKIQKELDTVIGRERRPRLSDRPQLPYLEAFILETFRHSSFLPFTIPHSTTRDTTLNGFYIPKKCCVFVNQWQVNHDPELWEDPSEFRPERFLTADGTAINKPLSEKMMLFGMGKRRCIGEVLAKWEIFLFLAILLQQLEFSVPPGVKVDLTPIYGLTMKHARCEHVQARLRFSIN

[8] = luciferase reporter signal suppression in cells – H4 neuroglioma cells, luminescence, dose response (AID 1990); format: functional, cell-based
[9] = alpha-synuclein stem-loop luciferase translation blockers – H4 neuroglioma cells, luminescence, confirmation (AID 1988); format: functional, cell-based
[10] = Luminescence Cell-Based Dose Response HTS to Identify Inhibitors of 5'UTR Stem-Loop Driven Prion Protein mRNA Translation in H4 Neuroglioblastoma Cells. [Related pubchem assays: 1827 (Project Summary), 1813 (Primary HTS)]; format: functional

Sequence of DNA dC->dU-editing enzyme APOBEC-3G (Q9HC16 whole entry): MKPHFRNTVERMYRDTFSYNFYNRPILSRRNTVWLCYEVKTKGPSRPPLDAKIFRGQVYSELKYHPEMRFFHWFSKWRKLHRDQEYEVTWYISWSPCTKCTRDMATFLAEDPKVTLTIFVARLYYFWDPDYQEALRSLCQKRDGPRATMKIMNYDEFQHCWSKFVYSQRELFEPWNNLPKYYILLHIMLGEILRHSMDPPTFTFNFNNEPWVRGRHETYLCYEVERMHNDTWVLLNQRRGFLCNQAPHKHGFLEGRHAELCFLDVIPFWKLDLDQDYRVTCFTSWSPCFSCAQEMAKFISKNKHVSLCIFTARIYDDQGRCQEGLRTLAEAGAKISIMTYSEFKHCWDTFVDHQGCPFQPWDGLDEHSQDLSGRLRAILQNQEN
Sequence of Cytochrome P450 2D6 (P10635 whole entry): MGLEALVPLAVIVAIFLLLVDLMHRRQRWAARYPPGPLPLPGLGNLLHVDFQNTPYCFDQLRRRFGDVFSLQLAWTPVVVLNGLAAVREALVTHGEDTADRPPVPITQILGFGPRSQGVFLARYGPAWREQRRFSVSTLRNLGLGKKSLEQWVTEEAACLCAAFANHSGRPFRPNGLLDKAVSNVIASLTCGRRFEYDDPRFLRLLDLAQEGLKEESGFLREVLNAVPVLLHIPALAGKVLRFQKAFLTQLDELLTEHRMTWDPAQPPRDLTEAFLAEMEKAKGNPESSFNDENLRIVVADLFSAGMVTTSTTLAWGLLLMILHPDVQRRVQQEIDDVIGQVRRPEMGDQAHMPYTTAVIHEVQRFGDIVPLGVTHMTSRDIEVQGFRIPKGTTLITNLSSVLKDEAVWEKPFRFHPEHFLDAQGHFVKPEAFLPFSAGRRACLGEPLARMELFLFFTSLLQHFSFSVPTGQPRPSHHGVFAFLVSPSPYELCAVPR
Sequence of 72 kDa type IV collagenase (P08253 whole entry): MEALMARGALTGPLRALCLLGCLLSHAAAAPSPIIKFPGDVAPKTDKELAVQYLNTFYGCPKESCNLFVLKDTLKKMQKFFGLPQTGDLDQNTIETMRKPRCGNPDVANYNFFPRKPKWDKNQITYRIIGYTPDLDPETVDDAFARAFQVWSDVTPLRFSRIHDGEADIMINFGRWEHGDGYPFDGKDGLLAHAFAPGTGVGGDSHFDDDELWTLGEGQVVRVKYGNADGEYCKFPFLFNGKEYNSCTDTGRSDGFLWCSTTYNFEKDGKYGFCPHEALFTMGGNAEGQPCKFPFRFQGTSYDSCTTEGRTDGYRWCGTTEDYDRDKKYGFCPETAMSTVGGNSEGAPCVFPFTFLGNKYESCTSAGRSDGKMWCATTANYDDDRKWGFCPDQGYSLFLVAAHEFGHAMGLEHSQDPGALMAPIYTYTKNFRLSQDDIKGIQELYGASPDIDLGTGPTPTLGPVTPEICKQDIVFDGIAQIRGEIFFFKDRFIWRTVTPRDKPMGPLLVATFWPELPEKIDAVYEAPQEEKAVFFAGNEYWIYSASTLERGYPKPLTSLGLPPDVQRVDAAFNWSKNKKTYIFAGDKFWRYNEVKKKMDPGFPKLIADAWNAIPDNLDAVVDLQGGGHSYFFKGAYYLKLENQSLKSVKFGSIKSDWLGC
Sequence of 26S proteasome non-ATPase regulatory subunit 14 (O00487 whole entry): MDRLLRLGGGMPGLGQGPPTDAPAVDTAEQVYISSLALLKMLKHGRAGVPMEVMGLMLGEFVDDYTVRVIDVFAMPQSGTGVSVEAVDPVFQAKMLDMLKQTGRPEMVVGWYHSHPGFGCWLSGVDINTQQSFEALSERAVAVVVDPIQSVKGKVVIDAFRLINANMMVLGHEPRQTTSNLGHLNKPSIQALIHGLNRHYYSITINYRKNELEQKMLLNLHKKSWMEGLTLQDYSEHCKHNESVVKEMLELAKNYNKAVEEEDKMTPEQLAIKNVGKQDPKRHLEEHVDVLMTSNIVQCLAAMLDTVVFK
Sequence of Luciferin 4-monooxygenase (P08659 whole entry): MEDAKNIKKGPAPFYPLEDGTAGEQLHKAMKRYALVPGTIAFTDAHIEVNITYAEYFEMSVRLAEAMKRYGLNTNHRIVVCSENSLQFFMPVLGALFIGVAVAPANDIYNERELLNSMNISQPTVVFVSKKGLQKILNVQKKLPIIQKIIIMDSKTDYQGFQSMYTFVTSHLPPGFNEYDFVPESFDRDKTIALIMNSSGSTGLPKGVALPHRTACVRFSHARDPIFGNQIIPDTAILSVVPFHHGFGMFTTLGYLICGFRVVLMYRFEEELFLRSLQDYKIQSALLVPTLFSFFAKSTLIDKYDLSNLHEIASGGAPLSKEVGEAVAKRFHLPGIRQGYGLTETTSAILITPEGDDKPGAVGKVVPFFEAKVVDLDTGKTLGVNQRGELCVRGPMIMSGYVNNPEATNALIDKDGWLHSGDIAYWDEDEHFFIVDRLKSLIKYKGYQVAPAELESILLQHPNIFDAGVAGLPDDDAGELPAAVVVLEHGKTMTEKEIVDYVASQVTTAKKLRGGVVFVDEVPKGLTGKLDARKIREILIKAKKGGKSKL

O=S(=O)(c1cnc(Cl)c(Cl)c1)N1CCCc2ccccc21
IC50 [1]: > 80 µM (inactive)

CCOC(=O)C(/C=N/c1cc(C)ccc1C)=C(\O)OCC
IC50 [1]: > 80 µM (inactive)

O=C(NC1=NC(=O)C(F)(C(F)(F)F)S1)NC1CCCCC1 (configuration not stated)
IC50 [2]: 32.7 µM (active)
IC50 [3]: > 50 µM (not active)

Cc1[nH]c2ccccc2c1/C=C/C(=O)c1ccncc1
IC50 [4]: 38.8 µM (active)
IC50 [5]: > 100 µM (inactive)
IC50 (Prothrombin): 48.4 µM (active)

COc1ccc(C(N)=O)cc1NC(=O)c1cccc(F)c1
EC50 [6]: > 112 µM (not active)
AC50 (Cytochrome P450 2D6): inconclusive
EC50 [7]: > 112 µM (not active)
AC50 (Cytochrome P450 1A2): 5.01 µM (inconclusive)

CCOC(=O)c1sc(N)c(C(=O)Nc2ccccc2OC)c1C
IC50 [2]: 68.9 µM (active)

CCNc1nc(C)c2cc(Br)c(=O)n(CC)c2n1
IC50 [1]: > 80 µM (inactive)
EC50 [8]: 15.9 µM (active)
EC50 [9]: 11.5 µM (active)
EC50 [10]: 7.96 µM (active)

Cc1cccc(OCCn2c(S(=O)(=O)O)nc3ccccc32)c1
AC50 (Cytochrome P450 2D6): inconclusive
